The test system of one assay is euglobulin clot. Kind of assay: Euglobulin clot lysis. The assay is classed as biochemical, Pig. The following applies: 10 μL of urokinase 0.8 mg/mL; after 4 h; n = 3. As for the experimental part:
Pig blood was taken and mixed with 3.8% sodium citrate in a volume ratio of 9:1, immediately centrifuged at 3000 r/min for 10 min, and platelet-poor plasma was separated. 2 mL platelet-poor pig plasma and 36 mL ultrapure water were added into a 50 mL centrifuge tube. In each tube, 0.4 mL acetic acid (1%) was added and thoroughly mixed, and the tube was placed in a 4° C. refrigerator for 10 min and then centrifuged at 3000 r/min for 10 min. The centrifuge tubes were inverted, and then the inner wall of the tubes was dried using a filter paper after the liquid was drained. The euglobuin pellets resulting from centrifugation was freeze-dried for about 40 min and scratched out. About 35 mg euglobuin was taken and dissolved in 7 ml borax buffer (pH 9.28). The euglobuin were mostly dissolved after 1 h, into which 0.7 mL CaCl2 solution (25 mM) was added, and immediately plated on a 10×10 cm glass plate with a thickness of about 1 mm. After clot formation, 10 μL normal saline, or 10 μL of a solution of one of compounds Ia to Il in normal saline (1 mM) or 10 μL of a urokinase solution in normal saline (0.8 mg/mL) was pipetted and spotted onto the clot plate, with an interval between every two drops more than 1.5 cm, and each sample was spotted 3 times.

Assay [1] concerns thrombus from rat arterial blood. The assay can be described thus: In vitro thrombolysis. Also on record: species or system SD rats. As to conditions: urokinase 100 IU/mL, 2 h at 37° C., n = 6. The protocol:
SD rats (male, 350 to 400 g) were anaesthetized by intraperitoneal injection of a urethane solution at a dosage of 1200 mg/kg. The anaesthetized rats were fixed in a supine position, and the right common carotid artery was dissected, clamped at the proximal end with an arterial clip, and penetrated with a suture at the proximal and distal ends, respectively. The suture at the distal end is clipped tightly by a hemostatic clamp at the fur. Cannulation was performed at the distal end, the artery clamp was removed, and the total arterial blood was discharged into a 50 ml container previously treated with silicone oil. […] rat arterial blood was injected into a vertically fixed glass tube (20 mm in length, with an inner diameter of 4 mm and an outer diameter of 5 mm, sealed with a rubber stopper at the bottom), into which was immediately inserted a thrombus immobilization screw made of stainless steel. […] 40 min after the blood was coagulated, the rubber stopper at the bottom of the glass tube was removed, the stem of the thrombus immobilization screw was nipped by forceps, and the thrombus-wrapped thrombus immobilization screw was carefully taken out from the glass tube. The screw was then suspended and dipped in triple-distilled water to remove excessive blood, and accurately weighed after 1 h. The thrombus was suspended in 8 mL of normal saline, or a solution of compounds Ia-Il in normal saline (at a concentration of 100 nM), or a solution of ARPAK (SEQ. ID NO. 4), GRPAK (SEQ. ID NO. 5), RPAK (SEQ. ID NO. 3) or PAK in normal saline (at a concentration of 100 nM), or a solution of urokinase in normal saline (100 IU/mL), then shaked at 37° C. in a thermostatic shaker (63 r/min), and removed after 2 h and accurately weighed to determine the weight of the thrombus.

A further assay concerns thrombus. Kind of assay: In vivo thrombolysis, rat arteriovenous bypass thrombolysis model. Also on record: species or system SD rats. The following applies: urokinase 20000 IU/kg, after 1 h, n = 10. As for the experimental part:
SD rats (male, 220 to 230 g) were anaesthetized by intraperitoneal injection of a urethane solution at a dosage of 1200 mg/kg. The anaesthetized rats were fixed in a supine position, and the right common carotid artery was dissected, clamped at the proximal end with an arterial clip, and penetrated with a suture at the proximal and distal ends, respectively. The suture at the distal end is clipped tightly by a hemostatic clamp at the fur. Cannulation was performed at the distal end, the arterial clamp was removed, and about 1 ml arterial blood was discharged into a 1 ml eppendorf. 0.1 ml rat arterial blood was injected into a vertically fixed glass tube (15 mm in length, with an inner diameter of 2.5 mm and an outer diameter of 5.0 mm, sealed with a rubber stopper at the bottom), into which was immediately inserted a thrombus immobilization screw made of stainless steel. […] 15 min after the blood was coagulated, the rubber stopper at the bottom of the glass tube was removed, the stem of the thrombus immobilization screw was nipped by forceps, and the thrombus-wrapped thrombus immobilization screw was carefully taken out of the glass tube and then accurately weighed.
A bypass cannula was composed of 3 segments. The middle segment was a polyethylene tubing having a length of 60.0 mm and an inner diameter of 3.5 mm. The segments on both ends were similar polyethylene tubes having a length of 100.0 mm, an inner diameter of 1.0 mm and an outer diameter of 2.0 mm, one end of which was pulled to form a tip, with an outer diameter of 1.0 mm, that could be inserted into the rat carotid artery or vein, and the other end of which was sheathed by a polyethylene tube having a length of 7.0 mm and an outer diameter of 3.5 mm (thickened in order to be inserted into the polyethylene tubing of the middle segment). The inner wall of the 3-segment cannula was entirely silylated (with 1% silicone oil in ethyl ether). The thrombus-wrapped thrombus immobilization screw was placed into the polyethylene tubing of the middle segment, and both ends of the tubing sheathed the thickened ends of the two polyethylene tubes. The cannula was filled with a heparin solution in normal saline (50 IU/kg) through the tip end by using an injector and was ready for use. The trachea of the anaesthetized rat was then dissected and tracheal cannulation was performed. The left external carotid vein of the rat was dissected, and penetrated with a suture at the proximal and distal ends, respectively. An uneven open incision was careful made on the exposed left external carotid vein, and the tip of the bypass cannula prepared as described above was inserted into the proximal end of the open incision in the left external carotid vein, away from the stem of the thrombus immobilization screw in the middle segment of the bypass cannula (which accommodated the accurately weighed thrombus immobilization screw). A precise amount of heparin in saline (50 IU/kg) was injected through the tip at the other end by using an injector. At this moment, without removing the injector from the ethylene tube, the tubing between the injector and the polyethylene tube was clamped with forceps. The blood flow was stopped by clamping the proximal end of the right common carotid artery with an arterial clip, and an uneven open incision was cut carefully across the common carotid artery near the clip. The injector was pulled out of the tip of the polyethylene tube, and the tip of the polyethylene tube was then inserted into the proximal end of the artery open incision. Both ends of the bypass cannula were fixed to the artery or vein with #4 sutures. […]

For the next assay, the system named is rats with stroke. Kind of assay: Cerebral infarction volume after immediate treatment of stroke (TTC staining). It counts as in vivo, SD rats. The following applies: urokinase 20000 IU/kg; immediate treatment; n = 10. As for the experimental part:
After the rats were awake for 24 h and assessed for their degree of damage in neural function in Experimental example 6, they were anesthesized with urethane followed by immediate decapitation and removal of the brain. Brain tissues were kept in a −20° C. refrigerator for 2 h, and coronal sections of about 2 mm were successively sliced from the prefrontal end for a total of 6 sections, and then placed into a 2% TTC solution to incubate in darkness at 37° C. for 30 min. The color change in brain sections was observed: normal brain tissues were stained red by TTC, while ischemic brain tissues, i.e., brain tissues with infracts, appeared in a white color. Photographs were taken by using a digital camera and processed with SPSS statistics software, and the volume of infarction in brain tissues and the volume of normal brain tissues in the coronal sections were calculated.

Marks after values point to notes of the source that are not given here.

For the substance urokinase, the “Diameter (Mean ± SD mm) of euglobulin clot lysis” value in the assay with euglobulin clot is 10.7 mm. In addition, the “Weight reduction in thrombus (Mean ± SD mg)” value in assay [1] is 58.33 ± 4.08^a mg; with thrombus, 18.02 ± 2.32^a mg. In addition, the “Percentage of infarction volume (Mean ± SD %)” value in the assay on rats with stroke is given as 11.00 ± 2.42 ^b %.
